Target: A/Denmark/528/2009 (H1N1)pdm09 NA-H274Y (Influenza A virus, UniProt C3W5S3, H275Y)
Format: biochemical, Influenza A virus A/Denmark/528/2009 (H1N1)pdm09

Row | SMILES | NAI susceptibility classification (WHO guidance) | IC50 [nM]
1 | CCC(CC)O[C@@H]1C=C(C(=O)O)C[C@H](N)[C@H]1NC(C)=O [oseltamivir, oseltamivir carboxylate] | highly reduced inhibition (key: <10-fold, normal inhibition; 10–100 fold, reduced inhibition; >100-fold, highly reduced inhibition) | –
2 | CCC(CC)[C@H](NC(C)=O)[C@@H]1[C@H](O)[C@@H](C(=O)O)C[C@H]1N=C(N)N [peramivir] | highly reduced inhibition (key: <10-fold, normal inhibition; 10–100 fold, reduced inhibition; >100-fold, highly reduced inhibition) | 23.5
